Data: ChEMBL document CHEMBL4507264, “Data for DCP probe BAY-7598” (2021)

Assays:
[1] = target: Serine/threonine-protein kinase 38 (Homo sapiens) (UniProt Q15208); conditions: Compound concentration 1000.0 nM
[2] = target: Ribosomal protein S6 kinase alpha-5 (Homo sapiens) (UniProt O75582); conditions: Compound concentration 1000.0 nM
[3] = target: Mitogen-activated protein kinase 9 (Homo sapiens) (UniProt P45984); conditions: Compound concentration 1000.0 nM
[4] = target: Ephrin type-B receptor 4 (Homo sapiens) (UniProt P54760); conditions: Compound concentration 1000.0 nM
[5] = target: Serine/threonine-protein kinase PAK 6 (Homo sapiens) (UniProt Q9NQU5); conditions: Compound concentration 1000.0 nM
[6] = target: Phosphatidylinositol 4-phosphate 5-kinase type-1 gamma (Homo sapiens) (UniProt O60331); conditions: Compound concentration 1000.0 nM
[7] = target: Testis-specific serine/threonine-protein kinase 3 (Homo sapiens) (UniProt Q96PN8); conditions: Compound concentration 1000.0 nM
Chain of Testis-specific serine/threonine-protein kinase 3 (Homo sapiens) (Q96PN8 whole entry): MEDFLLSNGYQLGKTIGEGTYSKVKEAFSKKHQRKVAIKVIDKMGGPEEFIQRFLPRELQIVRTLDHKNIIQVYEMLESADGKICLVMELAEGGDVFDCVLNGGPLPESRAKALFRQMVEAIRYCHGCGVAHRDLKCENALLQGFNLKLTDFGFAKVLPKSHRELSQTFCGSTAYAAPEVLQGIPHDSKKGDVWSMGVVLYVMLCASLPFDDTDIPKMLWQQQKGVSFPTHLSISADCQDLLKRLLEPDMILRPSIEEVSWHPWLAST

[8] = target: RAC-beta serine/threonine-protein kinase (Homo sapiens) (UniProt P31751); conditions: Compound concentration 1000.0 nM
[9] = target: Serine/threonine-protein kinase Nek1 (Homo sapiens) (UniProt Q96PY6); conditions: Compound concentration 1000.0 nM
[10] = target: Mitogen-activated protein kinase kinase kinase 3 (Homo sapiens) (UniProt Q99759); conditions: Compound concentration 1000.0 nM
[11] = system: Tyrosine-protein kinase ABL1 (Homo sapiens), P00519 [Q252H]; conditions: Compound concentration 1000.0 nM
[12] = target: BDNF/NT-3 growth factors receptor (Homo sapiens) (UniProt Q16620); conditions: Compound concentration 1000.0 nM
[13] = system: Receptor-type tyrosine-protein kinase FLT3 (Homo sapiens), P36888 [UNDEFINED MUTATION]; conditions: Compound concentration 1000.0 nM
[14] = target: Serine/threonine-protein kinase D3 (Homo sapiens) (UniProt O94806); conditions: Compound concentration 1000.0 nM
Chain of Serine/threonine-protein kinase D3 (Homo sapiens) (O94806 whole entry): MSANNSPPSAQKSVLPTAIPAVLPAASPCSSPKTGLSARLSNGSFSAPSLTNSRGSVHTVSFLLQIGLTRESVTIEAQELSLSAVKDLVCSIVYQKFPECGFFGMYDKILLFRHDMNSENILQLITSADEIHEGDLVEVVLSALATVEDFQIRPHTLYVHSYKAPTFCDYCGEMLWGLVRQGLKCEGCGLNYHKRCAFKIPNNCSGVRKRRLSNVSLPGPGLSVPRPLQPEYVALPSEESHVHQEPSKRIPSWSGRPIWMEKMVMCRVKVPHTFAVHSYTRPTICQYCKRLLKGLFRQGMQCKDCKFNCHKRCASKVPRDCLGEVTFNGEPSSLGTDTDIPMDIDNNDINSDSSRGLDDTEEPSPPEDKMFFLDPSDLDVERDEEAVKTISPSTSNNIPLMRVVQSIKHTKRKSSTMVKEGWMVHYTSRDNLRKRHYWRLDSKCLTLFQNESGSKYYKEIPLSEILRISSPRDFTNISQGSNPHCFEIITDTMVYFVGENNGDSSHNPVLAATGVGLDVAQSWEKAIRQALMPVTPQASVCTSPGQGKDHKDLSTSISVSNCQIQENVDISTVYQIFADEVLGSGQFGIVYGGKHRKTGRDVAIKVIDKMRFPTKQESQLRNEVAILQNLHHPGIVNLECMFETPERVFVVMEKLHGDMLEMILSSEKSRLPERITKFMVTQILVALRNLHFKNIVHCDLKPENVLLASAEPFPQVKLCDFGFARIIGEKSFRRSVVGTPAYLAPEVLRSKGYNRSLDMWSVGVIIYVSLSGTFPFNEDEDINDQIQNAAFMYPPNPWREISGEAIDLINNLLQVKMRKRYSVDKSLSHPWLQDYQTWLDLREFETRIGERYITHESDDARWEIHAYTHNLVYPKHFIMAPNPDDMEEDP

[15] = target: Inhibitor of nuclear factor kappa-B kinase subunit alpha (Homo sapiens) (UniProt O15111); conditions: Compound concentration 1000.0 nM
Chain of Inhibitor of nuclear factor kappa-B kinase subunit alpha (Homo sapiens) (O15111 whole entry): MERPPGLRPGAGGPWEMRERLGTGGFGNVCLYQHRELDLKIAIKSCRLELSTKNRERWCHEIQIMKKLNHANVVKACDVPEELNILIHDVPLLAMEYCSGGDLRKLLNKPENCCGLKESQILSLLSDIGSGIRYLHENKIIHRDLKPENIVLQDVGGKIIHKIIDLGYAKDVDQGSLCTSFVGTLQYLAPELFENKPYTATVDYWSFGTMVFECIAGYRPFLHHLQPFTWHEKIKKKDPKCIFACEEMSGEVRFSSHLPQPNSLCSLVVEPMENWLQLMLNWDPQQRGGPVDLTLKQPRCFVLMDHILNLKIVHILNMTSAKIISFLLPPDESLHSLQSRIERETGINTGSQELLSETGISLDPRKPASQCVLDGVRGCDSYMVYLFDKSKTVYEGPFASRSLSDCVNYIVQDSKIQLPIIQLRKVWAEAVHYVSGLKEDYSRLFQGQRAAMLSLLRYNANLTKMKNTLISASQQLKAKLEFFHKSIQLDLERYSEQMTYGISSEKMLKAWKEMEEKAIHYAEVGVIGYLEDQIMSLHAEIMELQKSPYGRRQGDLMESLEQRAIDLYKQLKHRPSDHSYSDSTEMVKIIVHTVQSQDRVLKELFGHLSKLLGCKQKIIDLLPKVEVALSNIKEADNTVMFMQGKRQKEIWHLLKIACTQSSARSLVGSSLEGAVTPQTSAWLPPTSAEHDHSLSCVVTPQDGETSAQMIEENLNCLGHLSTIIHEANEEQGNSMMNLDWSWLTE

[16] = system: Epidermal growth factor receptor (Homo sapiens), P00533 [UNDEFINED MUTATION]; conditions: Compound concentration 1000.0 nM
[17] = target: MAP/microtubule affinity-regulating kinase 3 (Homo sapiens) (UniProt P27448); conditions: Compound concentration 1000.0 nM
[18] = target: Serine/threonine-protein kinase N2 (Homo sapiens) (UniProt Q16513); conditions: Compound concentration 1000.0 nM
[19] = target: Calcium/calmodulin-dependent protein kinase kinase 1 (Homo sapiens) (UniProt Q8N5S9); conditions: Compound concentration 1000.0 nM
[20] = target: TRAF2 and NCK-interacting protein kinase (Homo sapiens) (UniProt Q9UKE5); conditions: Compound concentration 1000.0 nM
[21] = target: Histamine H1 receptor (Homo sapiens) (UniProt P35367); conditions: Compound concentration 10.0 uM
[22] = target: Serine/threonine-protein kinase WNK2 (Homo sapiens) (UniProt Q9Y3S1); conditions: Compound concentration 1000.0 nM
[23] = target: Histamine H2 receptor (Homo sapiens) (UniProt P25021); conditions: Compound concentration 10.0 uM
[24] = target: cAMP-dependent protein kinase catalytic subunit alpha (Homo sapiens) (UniProt P17612); conditions: Compound concentration 1000.0 nM
[25] = target: Phosphorylase b kinase regulatory subunit alpha, liver isoform (Homo sapiens) (UniProt P46019); conditions: Compound concentration 1000.0 nM
[26] = target: Phosphatidylinositol 4,5-bisphosphate 3-kinase catalytic subunit gamma isoform (Homo sapiens) (UniProt P48736); conditions: Compound concentration 1000.0 nM
[27] = target: cGMP-dependent protein kinase 2 (Homo sapiens) (UniProt Q13237); conditions: Compound concentration 1000.0 nM
[28] = target: Ribosomal protein S6 kinase beta-1 (Homo sapiens) (UniProt P23443); conditions: Compound concentration 1000.0 nM
Chain of Ribosomal protein S6 kinase beta-1 (Homo sapiens) (P23443 whole entry, looked up): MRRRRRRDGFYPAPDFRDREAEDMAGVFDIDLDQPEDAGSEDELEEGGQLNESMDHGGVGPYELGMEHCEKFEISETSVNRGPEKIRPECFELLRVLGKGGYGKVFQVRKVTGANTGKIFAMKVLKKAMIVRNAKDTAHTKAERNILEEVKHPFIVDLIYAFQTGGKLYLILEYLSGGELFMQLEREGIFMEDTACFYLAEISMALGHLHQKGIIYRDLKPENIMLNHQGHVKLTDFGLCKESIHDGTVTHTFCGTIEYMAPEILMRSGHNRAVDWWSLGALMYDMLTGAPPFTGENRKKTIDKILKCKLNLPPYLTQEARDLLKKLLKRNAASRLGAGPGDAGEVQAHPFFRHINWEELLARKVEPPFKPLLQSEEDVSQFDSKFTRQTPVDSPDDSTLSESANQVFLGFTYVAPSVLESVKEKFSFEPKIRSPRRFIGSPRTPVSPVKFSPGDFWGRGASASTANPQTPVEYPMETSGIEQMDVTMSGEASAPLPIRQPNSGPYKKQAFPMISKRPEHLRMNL

[29] = target: Vascular endothelial growth factor receptor 1 (Homo sapiens) (UniProt P17948); conditions: Compound concentration 1000.0 nM
[30] = target: LIM domain kinase 1 (Homo sapiens) (UniProt P53667); conditions: Compound concentration 1000.0 nM
[31] = target: Fibroblast growth factor receptor 1 (Homo sapiens) (UniProt P11362); conditions: Compound concentration 1000.0 nM
[32] = target: Myosin-IIIa (Homo sapiens) (UniProt Q8NEV4); conditions: Compound concentration 1000.0 nM
[33] = target: Protein kinase C theta type (Homo sapiens) (UniProt Q04759); conditions: Compound concentration 1000.0 nM
Chain of Protein kinase C theta type (Homo sapiens) (Q04759 whole entry, looked up): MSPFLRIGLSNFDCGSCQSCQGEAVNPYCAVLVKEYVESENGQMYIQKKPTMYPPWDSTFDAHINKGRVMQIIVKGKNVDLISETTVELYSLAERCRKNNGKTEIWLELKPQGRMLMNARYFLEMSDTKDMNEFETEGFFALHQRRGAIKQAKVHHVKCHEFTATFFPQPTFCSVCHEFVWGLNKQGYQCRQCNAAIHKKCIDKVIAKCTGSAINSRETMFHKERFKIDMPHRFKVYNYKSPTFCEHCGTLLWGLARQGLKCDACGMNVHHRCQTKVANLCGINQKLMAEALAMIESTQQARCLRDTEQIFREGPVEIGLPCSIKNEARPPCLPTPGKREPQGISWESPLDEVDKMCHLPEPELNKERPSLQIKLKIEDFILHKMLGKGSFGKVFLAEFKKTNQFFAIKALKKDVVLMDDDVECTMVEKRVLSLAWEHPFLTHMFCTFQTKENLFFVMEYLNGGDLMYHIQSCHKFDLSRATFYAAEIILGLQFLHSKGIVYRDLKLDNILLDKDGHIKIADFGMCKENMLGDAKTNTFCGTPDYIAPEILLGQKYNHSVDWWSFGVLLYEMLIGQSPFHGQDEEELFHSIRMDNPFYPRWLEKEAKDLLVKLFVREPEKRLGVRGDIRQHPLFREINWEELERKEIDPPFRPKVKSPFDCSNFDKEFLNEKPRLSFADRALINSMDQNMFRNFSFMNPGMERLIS

[34] = target: Alpha-2C adrenergic receptor (Homo sapiens) (UniProt P18825); conditions: Compound concentration 10.0 uM
[35] = target: Muscarinic acetylcholine receptor M3 (Homo sapiens) (UniProt P20309); conditions: Compound concentration 10.0 uM
Chain of Muscarinic acetylcholine receptor M3 (Homo sapiens) (P20309 whole entry, looked up): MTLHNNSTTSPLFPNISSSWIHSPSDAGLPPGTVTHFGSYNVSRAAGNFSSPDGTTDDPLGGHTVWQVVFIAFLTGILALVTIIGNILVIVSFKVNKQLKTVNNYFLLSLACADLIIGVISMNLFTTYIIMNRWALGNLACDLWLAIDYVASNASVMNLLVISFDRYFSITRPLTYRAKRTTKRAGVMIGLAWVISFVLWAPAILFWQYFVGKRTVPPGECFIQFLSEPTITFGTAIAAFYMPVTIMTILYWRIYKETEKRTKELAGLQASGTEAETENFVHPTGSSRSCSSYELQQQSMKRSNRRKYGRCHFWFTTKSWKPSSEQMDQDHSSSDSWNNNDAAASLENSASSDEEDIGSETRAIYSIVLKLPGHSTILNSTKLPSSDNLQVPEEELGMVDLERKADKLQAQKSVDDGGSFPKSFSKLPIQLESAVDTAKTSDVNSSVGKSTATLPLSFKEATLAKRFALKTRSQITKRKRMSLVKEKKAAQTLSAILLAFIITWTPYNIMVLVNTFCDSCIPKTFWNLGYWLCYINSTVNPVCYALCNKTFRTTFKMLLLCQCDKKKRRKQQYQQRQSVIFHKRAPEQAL

[36] = target: Calcium/calmodulin-dependent protein kinase type II subunit alpha (Homo sapiens) (UniProt Q9UQM7); conditions: Compound concentration 1000.0 nM
[37] = target: Mitogen-activated protein kinase kinase kinase 2 (Homo sapiens) (UniProt Q9Y2U5); conditions: Compound concentration 1000.0 nM
[38] = target: Death-associated protein kinase 3 (Homo sapiens) (UniProt O43293); conditions: Compound concentration 1000.0 nM
[39] = target: MAP kinase-interacting serine/threonine-protein kinase 1 (Homo sapiens) (UniProt Q9BUB5); conditions: Compound concentration 1000.0 nM
[40] = target: Ribosomal protein S6 kinase alpha-2 (Homo sapiens) (UniProt Q15349); conditions: Compound concentration 1000.0 nM
[41] = target: Eukaryotic translation initiation factor 2-alpha kinase 1 (Homo sapiens) (UniProt Q9BQI3); conditions: Compound concentration 1000.0 nM
[42] = target: NT-3 growth factor receptor (Homo sapiens) (UniProt Q16288); conditions: Compound concentration 1000.0 nM
Chain of NT-3 growth factor receptor (Homo sapiens) (Q16288 32-839 limits assumed): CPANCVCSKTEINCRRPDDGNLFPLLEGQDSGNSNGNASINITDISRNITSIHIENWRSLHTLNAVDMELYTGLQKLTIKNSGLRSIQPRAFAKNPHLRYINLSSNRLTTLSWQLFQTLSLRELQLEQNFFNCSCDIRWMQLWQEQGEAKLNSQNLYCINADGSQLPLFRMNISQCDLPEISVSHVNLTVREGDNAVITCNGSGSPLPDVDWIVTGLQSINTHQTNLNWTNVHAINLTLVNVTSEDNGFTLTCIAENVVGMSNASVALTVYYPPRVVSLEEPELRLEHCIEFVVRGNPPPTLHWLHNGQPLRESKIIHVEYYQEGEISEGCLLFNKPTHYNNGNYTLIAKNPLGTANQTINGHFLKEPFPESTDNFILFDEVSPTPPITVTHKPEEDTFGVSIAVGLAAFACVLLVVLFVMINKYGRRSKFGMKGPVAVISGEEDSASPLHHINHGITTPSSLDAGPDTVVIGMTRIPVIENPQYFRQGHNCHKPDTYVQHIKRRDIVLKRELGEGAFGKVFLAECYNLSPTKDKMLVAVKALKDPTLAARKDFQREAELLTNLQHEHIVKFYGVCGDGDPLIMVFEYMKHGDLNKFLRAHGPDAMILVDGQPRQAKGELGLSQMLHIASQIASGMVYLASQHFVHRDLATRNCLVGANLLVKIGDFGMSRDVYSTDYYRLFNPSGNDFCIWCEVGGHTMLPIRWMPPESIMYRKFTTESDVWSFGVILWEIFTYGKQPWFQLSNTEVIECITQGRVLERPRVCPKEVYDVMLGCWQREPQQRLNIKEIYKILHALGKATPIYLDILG

[43] = target: Dual specificity protein kinase CLK1 (Homo sapiens) (UniProt P49759); conditions: Compound concentration 1000.0 nM
Chain of Dual specificity protein kinase CLK1 (Homo sapiens) (P49759 whole entry, looked up): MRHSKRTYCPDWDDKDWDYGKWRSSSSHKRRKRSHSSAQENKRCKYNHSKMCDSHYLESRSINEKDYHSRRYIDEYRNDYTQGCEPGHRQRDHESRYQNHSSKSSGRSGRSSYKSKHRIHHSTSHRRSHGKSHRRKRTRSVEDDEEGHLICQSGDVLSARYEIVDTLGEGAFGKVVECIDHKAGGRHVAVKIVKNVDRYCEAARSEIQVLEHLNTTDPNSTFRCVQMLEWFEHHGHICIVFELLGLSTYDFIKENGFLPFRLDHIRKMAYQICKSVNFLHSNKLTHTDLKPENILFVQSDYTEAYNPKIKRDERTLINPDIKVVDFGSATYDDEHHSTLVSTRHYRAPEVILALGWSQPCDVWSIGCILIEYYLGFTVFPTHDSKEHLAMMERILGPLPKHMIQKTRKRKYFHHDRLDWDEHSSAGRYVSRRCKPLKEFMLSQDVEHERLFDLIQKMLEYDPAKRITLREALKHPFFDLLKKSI

[44] = target: Protein kinase C delta type (Homo sapiens) (UniProt Q05655); conditions: Compound concentration 1000.0 nM
[45] = target: Muscle, skeletal receptor tyrosine-protein kinase (Homo sapiens) (UniProt O15146); conditions: Compound concentration 1000.0 nM

O=C(O)[C@@H]1[C@@H](Cn2nnc3ccccc3c2=O)CC[C@H]1C(=O)c1ccc(OCCC2CCOCC2)cc1 [BAY-694]
inactive: residual activity [1] 95% | residual activity [2] 100% | residual activity [3] 100% | residual activity [4] 100% | residual activity [5] 99% | residual activity [6] 100% | residual activity [7] 100% | residual activity [8] 100% | residual activity [9] 100% | residual activity [10] 100% | residual activity [11] 96% | residual activity [12] 93% | residual activity [13] 100% | residual activity [14] 100% | residual activity [15] 100% | residual activity [16] 87% | residual activity [17] 100% | residual activity [18] 100% | residual activity [19] 100% | residual activity [20] 93% | inhibition [21] 1.6% | residual activity [22] 82% | inhibition [23] 17.5% | residual activity [24] 90% | residual activity [25] 100% | residual activity [26] 100% | residual activity [27] 100% | residual activity [28] 100% | residual activity [29] 100% | residual activity [30] 100% | residual activity [31] 100% | residual activity [32] 93% | residual activity [33] 85% | inhibition [34] 13.1% | inhibition [35] 5.09% | residual activity [36] 100% | residual activity [37] 100% | residual activity [38] 100% | residual activity [39] 93% | residual activity [40] 100% | residual activity [41] 100% | residual activity [42] 86% | residual activity [43] 98% | residual activity [44] 100% | residual activity [45] 100%

O=C(O)[C@H]1[C@H](Cn2nnc3ccccc3c2=O)CC[C@@H]1C(=O)c1ccc(OCCC2CCOCC2)cc1 [BAY-7598]
inactive: residual activity [1] 88% | residual activity [2] 100% | residual activity [3] 79% | residual activity [4] 96% | residual activity [5] 100% | residual activity [6] 100% | residual activity [7] 85% | residual activity [8] 88% | residual activity [9] 82% | residual activity [10] 100% | residual activity [11] 98% | residual activity [12] 75% | residual activity [13] 87% | residual activity [14] 88% | residual activity [15] 100% | residual activity [16] 76% | residual activity [17] 100% | residual activity [18] 76% | residual activity [19] 81% | residual activity [20] 84% | inhibition [21] -8.85% | residual activity [22] 99% | inhibition [23] 12.6% | residual activity [24] 97% | residual activity [25] 100% | residual activity [26] 90% | residual activity [27] 100% | residual activity [28] 100% | residual activity [29] 96% | residual activity [30] 100% | residual activity [31] 98% | residual activity [32] 100% | residual activity [33] 80% | inhibition [34] 8.3% | inhibition [35] -7.32% | residual activity [36] 100% | residual activity [37] 100% | residual activity [38] 99% | residual activity [39] 96% | residual activity [40] 78% | residual activity [41] 78% | residual activity [42] 82% | residual activity [43] 98% | residual activity [44] 100% | residual activity [45] 95%
